Test results from patent publication US11479551B2, “MTA-cooperative PRMT5 inhibitors” (Mirati Therapeutics, Inc., priority 2019, dated 2022).
Several values for one entry are separate records, joined by “and”; a condition that tells them apart may be missing. Equal values may be shown once.

How the values were obtained:
PRMT5/MEP50 complex [1] = target: T1, PRMT5/MEP50 complex (Homo sapiens (Human), UniProt O14744); assay: PRMT5:MEP50 HotSpot Assay (full-length histone H2A substrate, plus and minus MTA); assay type: biochemical
Protocol: (§1) The PRMT5 inhibitory activity of compounds of the present invention was determined using either a PRMT5:MEP50 FlashPlate Assay (Reaction Biology Corporation) or a PRMT5:MEP50 HotSpot Assay (Reaction Biology Corporation).
The assay uses recombinant full-length histone H2A as the PRMT5 substrate. […] The reaction was stopped and transferred to filter paper for detection. The amount of tritiated H2A in each sample was determined using a scintillation counter.

PRMT5/MEP50 complex [2] = target: T1, PRMT5/MEP50 complex; assay: PRMT5:MEP50 FlashPlate Assay (histone H4 peptide substrate, plus and minus MTA); assay type: biochemical
Protocol: as §1
1. PRMT5:MEP50 FlashPlate Assay

[3] = IC50 + 2 μM MTA, in the presence of 2 μM MTA
[4] = in the absence of MTA, read-out: IC50
[5] = IC50 + 2 μM MTA (nM), in the presence of 2 μM MTA

T1 sequence (O14744 2-637): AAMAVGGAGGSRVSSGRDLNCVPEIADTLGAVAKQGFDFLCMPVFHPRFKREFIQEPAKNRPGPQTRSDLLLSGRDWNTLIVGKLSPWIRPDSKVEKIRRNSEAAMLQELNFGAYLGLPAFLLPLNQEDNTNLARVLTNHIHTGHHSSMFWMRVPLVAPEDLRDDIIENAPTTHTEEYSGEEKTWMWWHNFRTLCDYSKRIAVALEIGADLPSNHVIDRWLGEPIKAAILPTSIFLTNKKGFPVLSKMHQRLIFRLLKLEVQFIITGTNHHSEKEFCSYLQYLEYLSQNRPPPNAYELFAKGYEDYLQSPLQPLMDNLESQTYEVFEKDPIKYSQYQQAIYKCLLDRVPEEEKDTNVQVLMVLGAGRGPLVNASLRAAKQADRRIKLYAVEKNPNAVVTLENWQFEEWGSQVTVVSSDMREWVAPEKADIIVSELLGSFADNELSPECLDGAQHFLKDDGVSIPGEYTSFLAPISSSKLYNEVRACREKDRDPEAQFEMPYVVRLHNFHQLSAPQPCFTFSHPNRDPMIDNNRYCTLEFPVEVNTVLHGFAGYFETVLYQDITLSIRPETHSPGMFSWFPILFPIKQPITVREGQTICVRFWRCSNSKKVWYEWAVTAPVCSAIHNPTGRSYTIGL
T1 sequence (Q9BQA1 2-342 partner): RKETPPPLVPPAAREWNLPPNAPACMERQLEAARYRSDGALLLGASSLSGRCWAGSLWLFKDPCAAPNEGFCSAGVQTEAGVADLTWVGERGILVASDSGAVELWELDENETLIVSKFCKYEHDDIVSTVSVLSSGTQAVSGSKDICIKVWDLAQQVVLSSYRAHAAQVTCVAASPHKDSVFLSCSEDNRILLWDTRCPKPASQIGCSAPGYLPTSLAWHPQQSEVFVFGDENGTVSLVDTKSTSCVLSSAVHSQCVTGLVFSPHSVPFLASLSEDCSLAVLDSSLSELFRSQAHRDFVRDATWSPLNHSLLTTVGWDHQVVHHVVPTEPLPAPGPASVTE

| IC50 (PRMT5/MEP50 complex [1]; [3]) | IC50 (PRMT5/MEP50 complex [2]; [5]) | IC50 (PRMT5/MEP50 complex [2]; [4]) | Compound | also measured |
| --- | --- | --- | --- | --- |
| 1020 nM | – | – | CCOc1ccn2ncc(-c3ccc4c(=O)[nH]nc(CN)c4c3)c2c1 [Example 4-112, 4-(aminomethyl)-6-(5-ethoxypyrazolo[1,5-a]pyridin-3-yl)phthalazin-1(2H)-one] | – |
| 561 nM | – | – | CC(C)Oc1ccn2ncc(-c3ccc4c(=O)[nH]nc(CN)c4c3)c2c1 [Example 4-113, 4-(aminomethyl)-6-(5-isopropoxypyrazolo[1,5-a]pyridin-3-yl)phthalazin-1(2H)-one] | – |
| 486 nM | – | – | NCc1n[nH]c(=O)c2ccc(-c3cnn4ccc(Oc5ccccc5)cc34)cc12 [Example 4-114, 4-(aminomethyl)-6-(5-phenoxypyrazolo[1,5-a]pyridin-3-yl)phthalazin-1(2H)-one] | – |
| 377 nM | – | – | Cn1ncc(-c2ccc3c(=O)[nH]nc(CN)c3c2)c1OCc1ccccc1 [Example 4-115, 4-(aminomethyl)-6-(5-(benzyloxy)-1-methyl-1H-pyrazol-4-yl)phthalazin-1(2H)-one] | – |
| 1080 nM | – | – | Cn1ncc(-c2ccc3c(=O)[nH]nc(CN)c3c2)c1OCC1CC1 [Example 4-116, 4-(aminomethyl)-6-(5-(cyclopropylmethoxy)-1-methyl-1H-pyrazol-4-yl)phthalazin-1(2H)-one] | – |
| 536 nM | – | – | Cn1ncc(-c2ccc3c(=O)[nH]nc(CN)c3c2)c1CCc1ccccc1 [Example 4-117, 4-(aminomethyl)-6-(1-methyl-5-phenethyl-1H-pyrazol-4-yl)phthalazin-1(2H)-one] | – |
| 724 nM | – | – | Cc1cccc(-c2c(-c3ccc4c(=O)[nH]nc(CN)c4c3)cnn2C)c1C#N [Example 4-118, 2-(4-(4-(aminomethyl)-1-oxo-1,2-dihydrophthalazin-6-yl)-1-methyl-1H-pyrazol-5-yl)-6-methylbenzonitrile] | IC50 (PRMT5/MEP50 complex [1]; [4]): 9920 nM |
| 441 nM | – | – | Cn1ncc(-c2ccc3c(=O)[nH]nc(CN)c3c2)c1-c1cccc(Cl)c1C#N [Example 4-119, 2-(4-(4-(aminomethyl)-1-oxo-1,2-dihydrophthalazin-6-yl)-1-methyl-1H-pyrazol-5-yl)-6-chlorobenzonitrile] | IC50 (PRMT5/MEP50 complex [1]; [4]): 5260 nM |
| > 10000 nM | – | – | Cn1ncc(-c2ccc3c(=O)[nH]nc(CN)c3c2)c1-c1cccc[n+]1[O-] [Example 4-120, 2-(4-(4-(aminomethyl)-1-oxo-1,2-dihydrophthalazin-6-yl)-1-methyl-1H-pyrazol-5-yl)pyridine 1-oxide] | – |
| 177 nM | – | – | NCc1n[nH]c(=O)c2ccc(-c3cncc(Oc4cccc5cccnc45)c3)cc12 [Example 4-121, 4-(aminomethyl)-6-(5-(quinolin-8-yloxy)pyridin-3-yl)phthalazin-1(2H)-one] | – |
| 3820 nM | – | – | CN(c1cncc(-c2ccc3c(=O)[nH]nc(CN)c3c2)c1)c1cccc2cccnc12 [Example 4-122, 4-(aminomethyl)-6-(5-(methyl(quinolin-8-yl)amino)pyridin-3-yl)phthalazin-1(2H)-one] | – |
| 549 nM | – | – | CCc1cccc(-c2c(-c3ccc4c(=O)[nH]nc(CN)c4c3)cnn2C)c1C#N [Example 4-123, 2-(4-(4-(aminomethyl)-1-oxo-1,2-dihydrophthalazin-6-yl)-1-methyl-1H-pyrazol-5-yl)-6-ethylbenzonitrile] | – |
| 826 nM | – | – | CCc1ccc(-c2c(-c3ccc4c(=O)[nH]nc(CN)c4c3)cnn2C)c(C#N)c1 [Example 4-124, 2-(4-(4-(aminomethyl)-1-oxo-1,2-dihydrophthalazin-6-yl)-1-methyl-1H-pyrazol-5-yl)-5-ethylbenzonitrile] | – |
| 1000 nM | – | – | CCc1ccc(C#N)c(-c2c(-c3ccc4c(=O)[nH]nc(CN)c4c3)cnn2C)c1 [Example 4-125, 2-(4-(4-(aminomethyl)-1-oxo-1,2-dihydrophthalazin-6-yl)-1-methyl-1H-pyrazol-5-yl)-4-ethylbenzonitrile] | – |
| 361 nM | – | – | Cn1ncc(-c2ccc3c(=O)[nH]nc(CN)c3c2)c1-c1ccc(C2CC2)cc1C#N [Example 4-126, 2-(4-(4-(aminomethyl)-1-oxo-1,2-dihydrophthalazin-6-yl)-1-methyl-1H-pyrazol-5-yl)-5-cyclopropylbenzonitrile] | – |
| 1570 nM | – | – | COc1cc(C#N)c(-c2c(-c3ccc4c(=O)[nH]nc(CN)c4c3)cnn2C)cc1Cl [Example 4-133, 2-(4-(4-(aminomethyl)-1-oxo-1,2-dihydrophthalazin-6-yl)-1-methyl-1H-pyrazol-5-yl)-4-chloro-5-methoxybenzonitrile] | – |
| 2730 nM | – | – | CCc1ccc(-c2c(-c3ccc4c(=O)[nH]nc(CN)c4c3)cnn2C)cc1 [Example 4-134, 4-(aminomethyl)-6-(5-(4-ethylphenyl)-1-methyl-1H-pyrazol-4-yl)phthalazin-1(2H)-one] | – |
| 872 nM | – | – | Cn1ncc(-c2ccc3c(=O)[nH]nc(CN)c3c2)c1-c1ccc(OC2CC2)cc1 [Example 4-136, 4-(aminomethyl)-6-(5-(4-cyclopropoxyphenyl)-1-methyl-1H-pyrazol-4-yl)phthalazin-1(2H)-one] | – |

| IC50 (PRMT5/MEP50 complex [1]; [3]) | IC50 (PRMT5/MEP50 complex [2]; [5]) | IC50 (PRMT5/MEP50 complex [2]; [4]) | Compound | also measured |
| --- | --- | --- | --- | --- |
| 1170 nM | – | – | Cn1ncc(-c2ccc3c(=O)[nH]nc(CN)c3c2)c1-c1ccccc1Cl [Example 4-143, 4-(aminomethyl)-6-(5-(2-chlorophenyl)-1-methyl-1H-pyrazol-4-yl)phthalazin-1(2H)-one] | – |
| 454 nM | – | – | Cn1ncc(-c2ccc3c(=O)[nH]nc(CN)c3c2)c1-c1c(Cl)cccc1Cl [Example 4-144, 4-(aminomethyl)-6-(5-(2,6-dichlorophenyl)-1-methyl-1H-pyrazol-4-yl)phthalazin-1(2H)-one] | – |
| 978 nM and 1910 nM | – | – | Cn1ncc(-c2ccc3c(=O)[nH]nc(CN)c3c2)c1-c1c(F)cccc1C#N [Example 4-152, 2-(4-(4-(aminomethyl)-1-oxo-1,2-dihydrophthalazin-6-yl)-1-methyl-1H-pyrazol-5-yl)-3-fluorobenzonitrile] | – |
| 1650 nM | – | – | Cn1ncc(-c2ccc3c(=O)[nH]nc(CN)c3c2)c1-c1ccccc1C(F)F [Example 4-153, 4-(aminomethyl)-6-(5-(2-(difluoromethyl)phenyl)-1-methyl-1H-pyrazol-4-yl)phthalazin-1(2H)-one] | – |
| 3280 nM | – | – | Cn1ncc(-c2ccc3c(=O)[nH]nc(CN)c3c2)c1OCc1ccccc1Cl [Example 4-154, 4-(aminomethyl)-6-(5-((2-chlorobenzyl)oxy)-1-methyl-1H-pyrazol-4-yl)phthalazin-1(2H)-one] | – |
| – | 5.6 nM | 151 nM | NCc1n[nH]c(=O)c2ccc(-c3cncc(Oc4ccc(Cl)cc4)c3)cc12 [Example 7-4, 4-(aminomethyl)-6-(5-(4-chlorophenoxy)pyridin-3-yl)phthalazin-1(2H)-one] | – |
| – | 2 nM | 64 nM | Cc1ccc(Oc2cncc(-c3ccc4c(=O)[nH]nc(CN)c4c3)c2)cc1 [Example 7-5, 4-(aminomethyl)-6-(5-(p-tolyloxy)pyridin-3-yl)phthalazin-1(2H)-one] | – |
| – | 18 nM | 577 nM | N#Cc1ccc(Oc2cncc(-c3ccc4c(=O)[nH]nc(CN)c4c3)c2)cc1 [Example 7-6, 4-((5-(4-(aminomethyl)-1-oxo-1,2-dihydrophthalazin-6-yl)pyridin-3-yl)oxy)benzonitrile] | – |
| – | 47 nM | 1650 nM | N#Cc1ccc(F)cc1-c1cncc(-c2ccc3c(=O)[nH]nc(CN)c3c2)c1 [Example 8-1, 2-(5-(4-(aminomethyl)-1-oxo-1,2-dihydrophthalazin-6-yl)pyridin-3-yl)-4-fluorobenzonitrile] | – |
| – | 36 nM | 3150 nM | N#Cc1ccc(-c2cncc(-c3ccc4c(=O)[nH]nc(CN)c4c3)c2)c(C#N)c1 [Example 8-2, 4-(5-(4-(aminomethyl)-1-oxo-1,2-dihydrophthalazin-6-yl)pyridin-3-yl)isophthalonitrile] | – |
| – | 2.3 nM | 237 nM | COc1ccc(-c2cncc(-c3ccc4c(=O)[nH]nc(CN)c4c3)c2)c(C#N)c1 [Example 8-3, 2-(5-(4-(aminomethyl)-1-oxo-1,2-dihydrophthalazin-6-yl)pyridin-3-yl)-5-methoxybenzonitrile] | – |
| – | 3.1 nM | 313 nM | N#Cc1cc(Cl)ccc1-c1cncc(-c2ccc3c(=O)[nH]nc(CN)c3c2)c1 [Example 8-4, 2-(5-(4-(aminomethyl)-1-oxo-1,2-dihydrophthalazin-6-yl)pyridin-3-yl)-5-chlorobenzonitrile] | – |
| – | 23 nM | 691 nM | N#Cc1cc(F)ccc1-c1cncc(-c2ccc3c(=O)[nH]nc(CN)c3c2)c1 [Example 8-5, 2-(5-(4-(aminomethyl)-1-oxo-1,2-dihydrophthalazin-6-yl)pyridin-3-yl)-5-fluorobenzonitrile] | – |
| – | 52 nM | 2140 nM | N#Cc1ccc(Cl)cc1-c1cncc(-c2ccc3c(=O)[nH]nc(CN)c3c2)c1 [Example 8-6, 2-(5-(4-(aminomethyl)-1-oxo-1,2-dihydrophthalazin-6-yl)pyridin-3-yl)-4-chlorobenzonitrile] | – |
| – | 33 nM | 931 nM | Cc1ccc(C#N)c(-c2cncc(-c3ccc4c(=O)[nH]nc(CN)c4c3)c2)c1 [Example 8-7, 2-(5-(4-(aminomethyl)-1-oxo-1,2-dihydrophthalazin-6-yl)pyridin-3-yl)-4-methylbenzonitrile] | – |
| – | 20 nM | 795 nM | COc1ccc(C#N)c(-c2cncc(-c3ccc4c(=O)[nH]nc(CN)c4c3)c2)c1 [Example 8-8, 2-(5-(4-(aminomethyl)-1-oxo-1,2-dihydrophthalazin-6-yl)pyridin-3-yl)-4-methoxybenzonitrile] | – |
| – | 25000 nM | 89600 nM | N#CCc1ccc2c(CN)n[nH]c(=O)c2c1 [Example 13-1, 2-[1-(aminomethyl)-4-oxo-3H-phthalazin-6-yl]acetonitrile] | – |

| Compound | IC50 (PRMT5/MEP50 complex [1]; [3]) | IC50 (PRMT5/MEP50 complex [2]; [5]) | IC50 (PRMT5/MEP50 complex [2]; [4]) | also measured |
| --- | --- | --- | --- | --- |
| Cn1ncc(-c2ccc3c(=O)[nH]nc(CN)c3c2)c1-c1ccc(OC2CCC2)cc1 [Example 4-138, 4-(aminomethyl)-6-(5-(4-cyclobutoxyphenyl)-1-methyl-1H-pyrazol-4-yl)phthalazin-1(2H)-one] | 354 nM | – | – | – |
